According to ChEMBL document CHEMBL3243921, “2-Pyrrolidinylideneureas, a new class of central nervous system agents” (J Med Chem, 1978):
The source made the active and inactive calls.

What was measured:
[1] = tested on: Rattus norvegicus; assay: Antianxiety activity in ip dosed rat assessed as effect on increase in punished responses administered qd for 5 days measured every day for 5 days; type: functional; details: 120 h, read-out: MED
[2] = tested on: Mus musculus; assay: Muscle relaxant activity in po dosed mouse assessed as blockade of pentylenetetrazol-induced tonic extensor seizure; type: functional
[3] = tested on: Mus musculus; assay: Blockade of pentylenetetrazol-induced lethality in mouse at 40 mg/kg, po; type: functional, organism-based; parameters: dose 40 mg/kg
[4] = tested on: Mus musculus; assay: Muscle relaxant activity in mouse assessed as blockade of pentylenetetrazol-induced tonic extensor seizure at 40 mg/kg, po; type: functional, organism-based; parameters: dose 40 mg/kg
[5] = tested on: Mus musculus; assay: Muscle relaxant activity in po dosed mouse assessed as increase in strychnine-induced persistant convulsive threshold; type: functional
[6] = tested on: Mus musculus; assay: Anticonvulsant activity in po dosed mouse assessed as blockade of supramaximal electroshock-induced […] seizure; type: functional
[7] = tested on: Mus musculus; assay: Acute toxicity in po dosed mouse assessed as concentration required to produce 50% loss of righting reflex administered as qd for 4 days measured for 1 min post last dose; type: organism-based; details: in vivo
[8] = Acute toxicity in po dosed mouse assessed as mortality administered as qd for 6 days measured on day 7 post last dose; type: organism-based; details: in vivo
[9] = Ratio of LD50 for po dosed mouse to PD50 for acute toxicity in po dosed mouse assessed as concentration required to produce 50% loss of righting reflex; type: organism-based; details: in vivo
[10] = Therapeutic index, ratio of PD50 for acute toxicity in po dosed mouse assessed as concentration required to produce 50% loss of righting reflex to MED causing antianxiety activity in ip dosed rat assessed as effect on increase in punished responses; type: organism-based; details: in vivo, other: oral (PD50, mouse) and intraperitoneal (MED, rat), read-out: TI
[11] = tested on: Mus musculus; assay: Sedative activity in mouse assessed as increase in pentylenetetrazol-induced pseudo-convulsive threshold at 25 to 200 mg/kg, po; type: functional, organism-based
[12] = tested on: Mus musculus; assay: Blockade of pentylenetetrazol-induced lethality in mouse assessed as delay in occurrence of death time up to 200 mg/kg, po; type: functional
[13] = tested on: Mus musculus; assay: Sedative activity in mouse assessed as increase in pentylenetetrazol-induced pseudo-convulsive threshold up to 200 mg/kg, po; type: functional, organism-based; parameters: dose 200 mg/kg
[14] = tested on: Mus musculus; assay: Hypnotic activity in mouse assessed as increase in pentylenetetrazol-induced persistent-convulsive threshold up to 200 mg/kg, po; type: functional, organism-based; parameters: dose 200 mg/kg
[15] = tested on: Mus musculus; assay: Potency index, ratio of chlorzoxazone MED20 to compound MED20 for muscle relaxant activity in po dosed mouse assessed as blockade of pentylenetetrazol-induced tonic extensor seizure; type: functional
[16] = tested on: Mus musculus; assay: Potency index, ratio of methocarbamol MED20 to compound MED20 for muscle relaxant activity in po dosed mouse assessed as blockade of pentylenetetrazol-induced tonic extensor seizure; type: functional
[17] = Therapeutic index, ratio of PD50 for acute toxicity in po dosed mouse assessed as concentration required to produce 50% loss of righting reflex to MED25 for muscle relaxant activity in po dosed mouse assessed as increase in strychnine-induced persistant convulsive threshold; type: organism-based; details: in vivo, read-out: TI
[18] = tested on: Mus musculus; assay: Potency index, ratio of chlorzoxazone MED20 to compound MED20 for anticonvulsant activity in po dosed mouse assessed as blockade of supramaximal electroshock-induced […] seizure; type: functional
[19] = tested on: Mus musculus; assay: Potency index, ratio of methocarbamol MED20 to compound MED20 for anticonvulsant activity in po dosed mouse assessed as blockade of supramaximal electroshock-induced […] seizure; type: functional
[20] = tested on: Mus musculus; assay: Sedative-hypnotic activity in mouse assessed as increase in pentylenetetrazol-induced pseudo/persistent-convulsive threshold at 50 to 200 mg/kg, po; type: functional, organism-based
[21] = tested on: Mus musculus; assay: Sedative-hypnotic activity in po dosed mouse assessed as increase in pentylenetetrazol-induced persistent-convulsive threshold; type: functional, organism-based
[22] = tested on: Mus musculus; assay: Sedative-hypnotic activity in mouse assessed as increase in pentylenetetrazol-induced pseudo/persistent-convulsive threshold at 1 to 5 mg/kg, po; type: functional, organism-based

CNC1=Nc2ccc(Cl)cc2C(c2ccccc2)=[N+]([O-])C1 [CHLORDIAZEPOXIDE]
minimal effective dose [1]: 2.5 mg/kg | MED20 [2]: 1.5 mg/kg | Activity [3]: Active | Activity [4]: Active | MED25 [5]: 10 mg/kg | MED20 [6]: 71 mg/kg | PD50 [7]: 680 mg/kg | LD50 at 144 h [8]: 990 mg/kg | selectivity ratio [9]: 1.5 | selectivity ratio [10]: 260

CN1CCC/C1=N\C(=O)Nc1ccccc1
minimal effective dose [1]: 15 mg/kg | MED20 [2]: 40 mg/kg | Activity [11]: Active | MED25 [5]: 35 mg/kg | MED20 [6]: >100 mg/kg | PD50 [7]: 220 mg/kg | LD50 at 144 h [8]: 215 mg/kg | selectivity ratio [9]: 1 | selectivity ratio [10]: 15

CCc1cccc(CC)c1NC(=O)/N=C1\CCCN1C
minimal effective dose [1]: > 25 mg/kg | MED20 [2]: 16 mg/kg | MED25 [5]: 120 mg/kg | MED20 [6]: 64 mg/kg | PD50 [7]: 161 mg/kg | LD50 at 144 h [8]: 370 mg/kg | selectivity ratio [9]: 2.3 | Time [12]: 1 min | Activity [13]: inactive | Activity [14]: inactive | Ratio [15]: 4 | Ratio [16]: 4 | selectivity ratio [17]: 1.3

CN1CCC/C1=N\C(=O)Nc1cccc(Br)c1
minimal effective dose [1]: 25 mg/kg | MED20 [2]: 52 mg/kg | Activity [11]: Active | MED25 [5]: 58 mg/kg | MED20 [6]: 180 mg/kg | PD50 [7]: 1430 mg/kg | LD50 at 144 h [8]: 1580 mg/kg | selectivity ratio [9]: 1.1 | selectivity ratio [10]: 57

Cc1cccc(C)c1NC(=O)/N=C1\CCCN1C [XILOBAM]
minimal effective dose [1]: > 25 mg/kg | MED20 [2]: 22 mg/kg | MED25 [5]: 26 mg/kg | MED20 [6]: 27 mg/kg | PD50 [7]: 230 mg/kg | Activity [13]: inactive | Activity [14]: inactive

CCc1cccc(C)c1NC(=O)/N=C1\CCCN1C
MED20 [2]: 20 mg/kg | MED25 [5]: 96 mg/kg | MED20 [6]: 36 mg/kg | LD50 at 144 h [8]: 650 mg/kg | Time [12]: 1 min | Activity [13]: inactive | Activity [14]: inactive | Ratio [15]: 4 | Ratio [16]: 4 | Ratio [18]: 3 | Ratio [19]: 3

CC(C)c1cccc(C(C)C)c1NC(=O)/N=C1\CCCN1C
MED20 [2]: 180 mg/kg | MED25 [5]: >200 mg/kg | MED20 [6]: 165 mg/kg | LD50 at 144 h [8]: 260 mg/kg | Time [12]: 1 min | Activity [13]: inactive | Activity [14]: inactive

CCN1CCC/C1=N\C(=O)Nc1cccc(Cl)c1
minimal effective dose [1]: 15 mg/kg | MED20 [2]: 60 mg/kg | Activity [20]: Active | MED25 [5]: 137 mg/kg | MED20 [6]: 200 mg/kg | PD50 [7]: 1307 mg/kg | LD50 at 144 h [8]: 1700 mg/kg | selectivity ratio [9]: 1.2 | selectivity ratio [10]: 58 | Activity [21]: Active

CN1CCC/C1=N\C(=O)Nc1cccc(C(F)(F)F)c1
minimal effective dose [1]: > 25 mg/kg | MED20 [2]: 47 mg/kg | Activity [11]: Active | MED25 [5]: 58 mg/kg | MED20 [6]: 76 mg/kg | PD50 [7]: 1000 mg/kg | LD50 at 144 h [8]: > 1000 mg/kg

COc1cccc(NC(=O)/N=C2\CCCN2C)c1
minimal effective dose [1]: > 25 mg/kg | MED20 [2]: 68 mg/kg | Activity [11]: Active | MED25 [5]: 135 mg/kg | MED20 [6]: 135 mg/kg | PD50 [7]: 1390 mg/kg | LD50 at 144 h [8]: 1200 mg/kg | selectivity ratio [9]: 1.5

Cc1cccc(NC(=O)/N=C2\CCCN2C)c1
minimal effective dose [1]: 25 mg/kg | MED20 [2]: 25 mg/kg | Activity [11]: Active | MED25 [5]: >200 mg/kg | MED20 [6]: 76 mg/kg | PD50 [7]: 825 mg/kg | LD50 at 144 h [8]: 850 mg/kg | selectivity ratio [9]: 1 | selectivity ratio [10]: 33

CN1C(=O)CN=C(c2ccccc2)c2cc(Cl)ccc21 [DIAZEPAM]
minimal effective dose [1]: 0.5 mg/kg | MED20 [2]: 0.1 mg/kg | MED25 [5]: 0.17 mg/kg | MED20 [6]: 15 mg/kg | Activity [22]: Active

CN1CCC/C1=N\C(=O)Nc1c(Cl)cccc1Cl
minimal effective dose [1]: > 25 mg/kg | MED20 [2]: 25 mg/kg | MED25 [5]: 64 mg/kg | MED20 [6]: 58 mg/kg | PD50 [7]: 320 mg/kg | LD50 at 144 h [8]: 565 mg/kg | selectivity ratio [9]: 1.8 | Time [12]: 1 min | Activity [13]: inactive | Activity [14]: inactive | Ratio [15]: 4 | Ratio [16]: 4 | selectivity ratio [17]: 5

CN1CCC/C1=N\C(=O)Nc1c(Br)cccc1Br
minimal effective dose [1]: > 25 mg/kg | MED20 [2]: 25 mg/kg | MED25 [5]: 50 mg/kg | MED20 [6]: 74 mg/kg | PD50 [7]: 350 mg/kg | LD50 at 144 h [8]: 560 mg/kg | selectivity ratio [9]: 1.6 | Time [12]: 1 min | Activity [13]: inactive | Activity [14]: inactive | Ratio [15]: 4 | Ratio [16]: 4 | selectivity ratio [17]: 7

Cc1cccc(Cl)c1NC(=O)/N=C1\CCCN1C
minimal effective dose [1]: > 25 mg/kg | MED20 [2]: 28 mg/kg | MED25 [5]: 52 mg/kg | MED20 [6]: 43 mg/kg | PD50 [7]: 232 mg/kg | LD50 at 144 h [8]: 449 mg/kg | selectivity ratio [9]: 1.9 | Time [12]: 1 min | Activity [13]: inactive | Activity [14]: inactive | Ratio [15]: 4 | Ratio [16]: 4 | Ratio [18]: 3 | Ratio [19]: 3 | selectivity ratio [17]: 4.5

CN1CCC/C1=N\C(=O)Nc1cccc(F)c1
minimal effective dose [1]: 25 mg/kg | MED20 [2]: 38 mg/kg | MED25 [5]: 210 mg/kg | MED20 [6]: 200 mg/kg | PD50 [7]: 500 mg/kg | LD50 at 144 h [8]: 525 mg/kg | selectivity ratio [9]: 1 | selectivity ratio [10]: 20

COc1cccc(OC)c1NC(=O)/N=C1\CCCN1C
minimal effective dose [1]: > 25 mg/kg | MED20 [2]: 62 mg/kg | MED25 [5]: >200 mg/kg | MED20 [6]: 80 mg/kg | PD50 [7]: 460 mg/kg | LD50 at 144 h [8]: 650 mg/kg | selectivity ratio [9]: 1.4 | Time [12]: 1 min | Activity [13]: inactive | Activity [14]: inactive
